# Experimental data published in patent US8431541B2, “Alpha-amylase inhibitors: the montbretins and uses thereof” (The University of British Columbia, priority 2007, dated 2013).
# Tests used:
# [1] = target: β-galactosidase (E. coli) (Escherichia coli, UniProt P00722); experiment: Glycosidase specificity: β-galactosidase; assay type: biochemical; settings: at 0.1 μM Montbretin A; read-out: RA (%), Residual Enzyme Activity
# [2] = Stability in simulated intestinal fluid (SIF) by UPLC; assay type: in vitro ADME; settings: SIF pH 6.89, 37° C., within 3 hours
# Procedure: (§1) The stability of montbretin A in both simulated intestinal fluid (SIF) and simulated gastric fluid (SGF) were analyzed via ultra performance liquid chromatography (UPLC). The instrument consisted of a Waters® Acquity™ UPLC system equipped with a PDA and a TQ detector in tandem. The 2 μL sample injection volume was passed through a Waters® Acquity™ BEH C18 column (1.7 μm, 2.1×100 mm), with mobile phases A and B consisting of water with 0.1% formic acid and acetonitrile with 0.1% formic acid, respectively. The mobile phases were delivered at a programmed linear gradient at a column temperature of 35° C. Linearity was evaluated using a set of montbretin A calibration standards with concentrations ranging from 10 to 100 μg/mL in water. […]
# (§2) To examine the gastrointestinal fluid activity, 0.5 mg/ml solutions of oleamide (positive control) in SGF or SIF were prepared by diluting a 100 μL aliquot of oleamide (50 mg/mL in 2-propanol) to 10 mL with either SGF or SIF and incubated in a 37° C. water bath for 1 or 3 hours, respectively. At time points of 1 or 3 hours, the sample was removed from the water bath and a 100 μL aliquot of the resulting solution was diluted to 1 mL with de-ionized water in a glass UPLC glass sample vial and analyzed by UPLC for oleamide content. […]
# [3] = target: T1, β-glucosidase (Agrobacterium sp.) (Agrobacterium sp., UniProt P12614); experiment: Glycosidase specificity: β-glucosidase; assay type: biochemical
# T1 sequence (P12614 1-459): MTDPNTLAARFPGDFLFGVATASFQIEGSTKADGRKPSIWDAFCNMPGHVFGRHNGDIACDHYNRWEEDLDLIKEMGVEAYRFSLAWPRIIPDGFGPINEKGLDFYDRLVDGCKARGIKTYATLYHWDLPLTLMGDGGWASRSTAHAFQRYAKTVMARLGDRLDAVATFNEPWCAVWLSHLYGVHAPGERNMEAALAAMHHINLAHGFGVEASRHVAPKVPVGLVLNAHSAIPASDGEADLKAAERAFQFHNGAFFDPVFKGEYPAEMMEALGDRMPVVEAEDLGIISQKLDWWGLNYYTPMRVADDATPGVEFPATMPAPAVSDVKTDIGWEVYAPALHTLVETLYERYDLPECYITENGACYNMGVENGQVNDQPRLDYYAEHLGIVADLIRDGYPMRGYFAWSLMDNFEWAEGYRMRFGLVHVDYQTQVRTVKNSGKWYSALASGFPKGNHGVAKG
# Description: The subsequent residue of montbretin A is also a β-linked glucose residue, however this residue bears a large 6-O-caffeic ester moiety and would therefore not be processed by Abg. […] Thus, the terminal glucosyl residue on the trisaccharide moiety is not required for α-amylase activity.
# [4] = Stability in simulated gastric fluid (SGF) by UPLC; assay type: in vitro ADME; settings: SGF pH 1.51, 37° C., 1 hour
# Procedure: as §1, §2
# [5] = target: α-galactosidase (Green Coffee Beans) (Coffea arabica, UniProt Q42656); experiment: Glycosidase specificity: α-galactosidase; assay type: biochemical; settings: at 0.1 μM Montbretin A; read-out: RA (%), Residual Enzyme Activity
# [6] = target: T2, human pancreatic α-amylase (HPA) (Homo sapiens, UniProt P04746); experiment: Kinetic analysis of HPA inhibition; assay type: biochemical
# T2 sequence (P04746 16-511): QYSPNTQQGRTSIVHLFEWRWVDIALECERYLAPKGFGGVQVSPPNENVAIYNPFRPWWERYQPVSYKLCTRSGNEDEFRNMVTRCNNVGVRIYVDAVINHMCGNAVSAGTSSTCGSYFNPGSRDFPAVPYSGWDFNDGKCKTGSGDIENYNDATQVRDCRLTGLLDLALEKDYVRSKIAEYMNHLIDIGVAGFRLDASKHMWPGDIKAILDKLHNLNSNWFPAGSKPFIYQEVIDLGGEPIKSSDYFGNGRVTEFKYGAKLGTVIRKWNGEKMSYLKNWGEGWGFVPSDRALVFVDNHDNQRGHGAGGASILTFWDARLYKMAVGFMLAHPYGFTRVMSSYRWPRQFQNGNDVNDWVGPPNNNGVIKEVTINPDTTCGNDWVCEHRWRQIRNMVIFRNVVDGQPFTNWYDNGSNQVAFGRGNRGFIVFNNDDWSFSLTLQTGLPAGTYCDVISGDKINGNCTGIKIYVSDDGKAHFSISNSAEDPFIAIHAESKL
# [7] = system: β-hexosaminidase (Jack Bean); experiment: Glycosidase specificity: β-hexosaminidase; assay type: biochemical; settings: at 0.1 μM Montbretin A
# [8] = target: T3, α-amylase (HPA) (Homo sapiens, UniProt P04746); experiment: Glycosidase specificity: α-amylase; assay type: biochemical; settings: at 0.1 μM Montbretin A; read-out: RA (%), Residual Enzyme Activity
# T3 sequence (P04746 16-511): T2 sequence (P04746 16-511)
# Chain of α-galactosidase (Green Coffee Beans) (Q42656 16-378): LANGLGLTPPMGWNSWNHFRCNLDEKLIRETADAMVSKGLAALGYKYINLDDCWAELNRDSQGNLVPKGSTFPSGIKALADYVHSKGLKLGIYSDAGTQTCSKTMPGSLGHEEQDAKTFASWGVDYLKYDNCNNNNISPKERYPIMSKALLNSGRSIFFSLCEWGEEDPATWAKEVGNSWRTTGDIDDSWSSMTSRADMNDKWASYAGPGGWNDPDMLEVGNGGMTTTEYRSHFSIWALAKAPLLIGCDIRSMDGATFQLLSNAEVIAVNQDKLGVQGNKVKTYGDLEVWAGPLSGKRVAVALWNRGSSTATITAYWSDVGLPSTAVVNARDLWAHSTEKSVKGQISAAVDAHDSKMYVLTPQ
# Chain of β-galactosidase (E. coli) (P00722 2-1024 limits assumed): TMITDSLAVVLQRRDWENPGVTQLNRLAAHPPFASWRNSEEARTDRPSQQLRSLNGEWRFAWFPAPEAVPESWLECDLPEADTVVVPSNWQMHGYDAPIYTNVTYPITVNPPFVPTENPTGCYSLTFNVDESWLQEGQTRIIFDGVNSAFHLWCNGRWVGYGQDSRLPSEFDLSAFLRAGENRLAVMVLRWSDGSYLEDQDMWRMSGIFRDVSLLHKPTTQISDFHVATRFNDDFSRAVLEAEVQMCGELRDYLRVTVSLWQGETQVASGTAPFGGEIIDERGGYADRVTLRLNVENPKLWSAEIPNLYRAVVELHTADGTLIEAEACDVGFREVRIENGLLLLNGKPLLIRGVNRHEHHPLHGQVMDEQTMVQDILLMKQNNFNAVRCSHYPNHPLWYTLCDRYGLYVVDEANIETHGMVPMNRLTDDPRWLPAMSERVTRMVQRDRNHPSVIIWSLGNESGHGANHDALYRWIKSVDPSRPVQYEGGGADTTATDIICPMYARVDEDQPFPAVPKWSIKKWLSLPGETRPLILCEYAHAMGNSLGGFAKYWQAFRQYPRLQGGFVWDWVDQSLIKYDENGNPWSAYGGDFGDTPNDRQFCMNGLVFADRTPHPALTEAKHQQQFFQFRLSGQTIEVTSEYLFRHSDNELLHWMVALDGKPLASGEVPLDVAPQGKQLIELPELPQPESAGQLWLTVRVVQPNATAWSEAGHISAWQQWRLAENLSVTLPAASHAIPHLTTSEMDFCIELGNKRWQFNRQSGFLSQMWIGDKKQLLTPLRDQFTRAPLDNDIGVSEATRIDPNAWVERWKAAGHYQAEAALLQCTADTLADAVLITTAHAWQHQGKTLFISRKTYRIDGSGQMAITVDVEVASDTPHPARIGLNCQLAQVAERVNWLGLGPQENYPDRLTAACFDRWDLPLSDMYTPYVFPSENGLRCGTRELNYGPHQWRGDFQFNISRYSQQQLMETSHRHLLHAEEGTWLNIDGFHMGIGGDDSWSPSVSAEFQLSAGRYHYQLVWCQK
smiles,measurement,setting,value
"CC1O[C@@H](O[C@@H]2CO[C@@H](Oc3c(O)cc(-c4oc5cc(O)cc(O)c5c(=O)c4O[C@@H]4OC(C)[C@H](O)[C@H](O)C4O[C@@H]4OC(COC(=O)/C=C/c5ccc(O)c(O)c5)[C@@H](O)[C@@H](O)C4O[C@@H]4OC(CO)[C@@H](O)[C@@H](O)C4O)cc3O)C(O)[C@@H]2O)C(O)[C@@H](O)[C@H]1O (stereo partly shown) [Montbretin A, montbretin A]",remaining activity at 0.1 µM,[1],98%
same,degradation in SIF,[2],no significant degradation
same,remaining activity at 0.1 µM,"[3]; at 0.1 μM Montbretin A, read-out: RA (%), Residual Enzyme Activity",100%
same,inhibition of β-glucosidase from Agrobacterium (Abg),[3]; extent of inhibition decreasing with time,time dependent inhibition
same,inhibition of Abg after pre-incubation,[3]; pre-incubation with Abg prior to addition of assay substrate,no inhibition
same,degradation or loss in SGF,[4],~10%
same,remaining activity at 0.1 µM,[5],100%
same,mode of inhibition of HPA,[6]; double reciprocal plot,competitive
same,effect of calcium on HPA inhibition,[6]; presence of 1 mM calcium chloride,no change in inhibition
same,effect of DTT on HPA inhibition,[6]; presence vs absence of 5 mM dithiothreitol,No effect
same,Ki,"[6]; varied substrate and inhibitor concentrations, GraFit",8.1 ± 0.5 nM
same,"RA (%), Residual Enzyme Activity",[7],99%
same,remaining activity at 0.1 µM,[8],11%
